Experimental data reported in ChEMBL document CHEMBL2384947, “27-Nor-Δ(4)-dafachronic acid is a synthetic ligand of Caenorhabditis elegans DAF-12 receptor” (Bioorg Med Chem Lett, 2013).
pEC50: −log10 of the molar value. Activity calls are given as the source filed them. The rule behind the calls is not given here.

Tests used:
Caenorhabditis elegans [1] = experiment: Reduction in resistance to H2O2-induced oxidative stress in wild type Caenorhabditis elegans N2 assessed as survival at 250 nM incubated 1 hr prior to H2O2 challenge relative to control; type: functional, organism-based
Caenorhabditis elegans [2] = experiment: Activation of DAF-12 receptor in Caenorhabditis elegans RG1228 harboring daf-9(rh50) mutant assessed as mig phenotype rescue at 250 nM after 3 days
Caenorhabditis elegans [3] = experiment: Reduction in resistance to H2O2-induced oxidative stress in Caenorhabditis elegans RG1228 harboring daf-9(rh50) mutant assessed as survival at 250 nM incubated 1 hr prior to H2O2 challenge; type: functional, organism-based
HEK293 = experiment: (§1) Transactivation of Caenorhabditis elegans DAF-12 receptor LBD transfected in HEK293 cells co-expressing Gal4-DBD after 20 hrs by luciferase reporter gene assay; type: cell-based
[4] = as §1; type: cell-based; conditions: HEK293, 20 h

**Q.** For C[C@H](CCCCC(=O)O)[C@H]1CC[C@H]2[C@@H]3CCC4=CC(=O)CC[C@]4(C)[C@H]3CC[C@]12C, which Activity (Caenorhabditis elegans [1]) is on record?
**A.** Active

**Q.** What about the Activity (Caenorhabditis elegans [2]) of the same molecule?
**A.** Active

**Q.** What about the Activity (Caenorhabditis elegans [3]) of the same molecule?
**A.** Active

**Q.** And the Activity (HEK293)?
**A.** Dose-dependent effect

**Q.** And the pEC50 [4]?
**A.** 5.00
